Results on 13 compounds are retold here after US20150030540A1 (Eli Lilly and Company, priority 2008, published 2015).

Series [1] has as its target T1, Aβ fibrils (Homo sapiens, UniProt P05067).
T1 construct: Aβ monomer
The following applies: read-out: Binding Affinity Ki; cited from earlier work.

The target in series [2] is fibrils (Aβ1-42) (Homo sapiens, UniProt P05067). In words: Biacore assay, Aβ42 fibrils. It counts as binding. Also noted: key: A “+” sign represents a hit; ++: the increase in “+” signs relates to increasing binding affinity; +++: the increase in “+” signs relates to increasing binding affinity; A “−”sign represents no binding. The following applies: 10 uM. How it is done:
β-Amyloid (Aβ42) Insoluble Aggregates (Fibrils). Fibrils were prepared according to methods published previously ([…] et al. 2001). Briefly, 0.5 mg of Aβ42 (Biotin-LC-Aβ42:Aβ42=1:1) was dissolved in 1 ml of PBS, pH 7.4, and mixed with a magnetic stir bar for 3 d at 37° C., resulting in a visibly cloudy solution. The fibril pellet was collected by centrifugation. The Biotin-LC-Aβ42 fibrils were immobilized onto SA chip by streptavidin-biotin capture. Screening of Amyloid Binding Compounds with Biacore (Surface Plasmon Resonance Analysis). Aβ42 oligomers/soluble polymers or fibrils were immobilized on Flow Cell 2 (Fc2) or Flow Cell 3 (Fc3) of the Sensor Chip, with Fc1 serving as the control. […] The Flow Cells were then washed with running buffer (1×PBS) for 2 minute, and regenerated with 50 mM of NaOH for 30 seconds. The real time interaction between the screening compound and the amyloid aggregates immobilized on the chip surface was recorded in the sensorgram.
(Surface plasmon resonance follows binding to a sensor surface in real time, without labels.)

The target in series [3] is oligomers/polymers (Aβ1-42) (Homo sapiens, UniProt P05067). In words: Biacore assay, Aβ42 oligomers/soluble polymers. It counts as binding. The following applies: 10 uM. Also noted: key: A “+” sign represents a hit; ++: the increase in “+” signs relates to increasing binding affinity; +++: the increase in “+” signs relates to increasing binding affinity; A “−”sign represents no binding. How it is done:
β-Amyloid (Aβ42) Soluble Aggregates (Oligomers/Soluble Polymers). Biotin-LC-Aβ42 was mixed with Aβ42 at a ratio of 3:2. After dissolving in 1% NH4OH and dH2O, the mixture (40 uM concentration) was incubated in 1×PBS (pH 7.4) buffer at RT for 6-hours to form oligomers/soluble polymers. The free monomer of Aβ42 in the sample was removed using a Microcon centrifugal filter tube with a 10 KDa of MW cutoff. The Biotin-LC-Aβ42 oligomers/polymers were immobilized onto SA chip by streptavidin-biotin capture. Screening of Amyloid Binding Compounds with Biacore (Surface Plasmon Resonance Analysis). Aβ42 oligomers/soluble polymers or fibrils were immobilized on Flow Cell 2 (Fc2) or Flow Cell 3 (Fc3) of the Sensor Chip, with Fc1 serving as the control. […] The Flow Cells were then washed with running buffer (1×PBS) for 2 minute, and regenerated with 50 mM of NaOH for 30 seconds. The real time interaction between the screening compound and the amyloid aggregates immobilized on the chip surface was recorded in the sensorgram.

The target in series [4] is T2, Aβ monomer (Homo sapiens, UniProt P05067).
T2 construct: Aβ monomer
The settings on record: read-out: Binding Affinity IC50; cited from earlier work.

A short description of series [5]: microPET imaging of AD-CB-001 in rat. Type of series: in vivo, Sprague-Dawley rat. The settings on record: tail vein, 30 min dynamic microPET scan. The protocol:
A white Sprague-Dawley rat was injected via tail vein with ˜850 uCi AD-CB-001, formulated in 10% EtOH:water. A dynamic scan was conducted for 30 min on a R4 microPET scanner. The data was reconstructed using 1 min framing.

Series [6] in a line: Grey to white matter binding, autoradiography of AD patient brain slices. Also noted: species or system human. The following applies: for Grey/white matter binding ratio using mild wash conditions: mild wash: 30%/40%/20% EtOH:water. The protocol: A study was conducted to examine the grey to white matter binding ratios for 4 different tracers: CB-001, CB-003, FDDNP and F-PiB (FIG. 7 and FIG. 8 of U.S. Ser. No. 12/372,717). […] After the human brain slices from AD patients were incubated with a given tracer for 30 min, the slices were washed with various EtOH:water solutions in an attempt to optimize the grey to white matter ratios (FIG. 9 of U.S. Ser. No. 12/372,717). The results were surprising and unexpected in view of previous work performed by other researchers. CB-001 has a slightly higher c Log P than FDDNP (3.8 vs 3.4) and would be expected to have poorer washout than FDDNP based on these values. […] More specifically, the white matter binding of FDDNP is several shades darker than CB-001's white matter binding, indicating low non-specific binding of CB-001.

Series [7] concerns amyloid binding pockets. Put plainly: Blocking of [18F]-CB001 autoradiography staining.
In series [8] the target is T3, MAO-B (Homo sapiens, UniProt P27338).
T3 sequence (P27338 1-520): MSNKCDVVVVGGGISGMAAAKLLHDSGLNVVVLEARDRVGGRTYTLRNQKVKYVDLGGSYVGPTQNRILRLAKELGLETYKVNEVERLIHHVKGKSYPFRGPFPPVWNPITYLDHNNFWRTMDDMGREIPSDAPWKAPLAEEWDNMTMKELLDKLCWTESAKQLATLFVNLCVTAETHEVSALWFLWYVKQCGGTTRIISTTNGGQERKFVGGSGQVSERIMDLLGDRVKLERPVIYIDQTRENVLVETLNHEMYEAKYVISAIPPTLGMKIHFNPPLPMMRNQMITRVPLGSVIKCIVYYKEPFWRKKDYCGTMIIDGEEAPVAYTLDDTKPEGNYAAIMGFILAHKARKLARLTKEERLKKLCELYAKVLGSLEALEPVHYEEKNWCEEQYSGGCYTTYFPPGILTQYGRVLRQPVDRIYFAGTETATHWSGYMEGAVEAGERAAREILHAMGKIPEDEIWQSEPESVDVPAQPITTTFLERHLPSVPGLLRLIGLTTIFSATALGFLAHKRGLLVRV
Put plainly: MAO inhibition, MAO-B. Type of series: biochemical.

The nature of series [9]: GM Intensity (comp. with W372). Type of series: binding. The following applies: compared with W372.
Series [10] addresses T4, MAO-A (Homo sapiens, UniProt P21397).
T4 sequence (P21397 1-527): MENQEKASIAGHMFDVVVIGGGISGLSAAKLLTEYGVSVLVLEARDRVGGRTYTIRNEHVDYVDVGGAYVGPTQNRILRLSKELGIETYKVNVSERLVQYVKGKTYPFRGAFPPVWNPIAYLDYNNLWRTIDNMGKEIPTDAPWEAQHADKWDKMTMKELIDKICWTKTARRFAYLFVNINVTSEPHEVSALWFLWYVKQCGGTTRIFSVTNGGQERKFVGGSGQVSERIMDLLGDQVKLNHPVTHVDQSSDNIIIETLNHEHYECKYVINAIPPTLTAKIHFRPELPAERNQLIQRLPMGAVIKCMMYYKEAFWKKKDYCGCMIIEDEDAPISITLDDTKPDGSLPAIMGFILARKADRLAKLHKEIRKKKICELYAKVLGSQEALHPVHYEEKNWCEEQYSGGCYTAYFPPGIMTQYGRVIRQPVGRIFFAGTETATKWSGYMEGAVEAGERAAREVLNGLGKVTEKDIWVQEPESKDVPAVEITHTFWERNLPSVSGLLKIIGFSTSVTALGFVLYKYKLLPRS
Put plainly: MAO inhibition, MAO-A. It counts as biochemical.

Series [11] in a line: Brain uptake after intravenous injection into mice. Type of series: in vivo. The following applies: injected intravenously into mice. From the text: (§1) When injected intravenously into mice, the Carbazole based compounds; in particular T807, T805 and T794 have shown excellent brain uptake. These compounds also display high binding affinity to tau fibrils. […] In neuropathological staining, compounds of the present invention stained amyloid plaques and/or tau aggregates.

The target of series [12] is AchE (Homo sapiens, UniProt P22303). In words: AchE activity (IC50). It counts as biochemical.
Series [13] is described as follows: background in normal brain. Type of series: binding. From the text: (§2) Furthermore, the selectivity can be evaluated in brains containing only Aβ plaques/no tau aggregates, Aβ plaques/and tau aggregates, and control brains. Unfortunately, there are no AD brains with only tau and no Aβ present. By testing radiolabeled tracers in these brain sections, one can more quantitative evaluate the relative binding strength (signal strength) and selectivity of various test compounds as they all contain the same radioactive tracer. For examples, if a test tracer binds only to tau, and not amyloid, it should show no signal in the Aβ plaques only brain sections. If a compound binds only to amyloid, it should show uptake in both types of brains. The difficulty of identifying and further quantifying selective compounds lies in the relative abundance of amyloid vs. tau, which is difficult to measure.

Series [14] can be described thus: Brain uptake in rats and mice. Type of series: in vivo.
Series [15] concerns the target T5, tau (Homo sapiens, UniProt P10636).
T5 construct: Native forms of tau (various isoforms, hyperphosphorylated) and amyloid aggregates are present in brain sections and therefore preferred for compound testing
Put plainly: KD (tau) binding. The settings on record: read-out: KD (tau).
Description: as §1, §2

For series [16], the system named is tau/Ab. Put plainly: selectivity (tau/Ab). It counts as binding.
Description: as §2

Series [17] concerns tau/amyloid. In words: Tx/tau/amyloid correlation. Type of series: binding.
Series [18] deals with human hepatocytes. In words: Metabolism in human hepatocytes. Type of series: in vitro ADME.
Series [19] has as its target Amyloid (AD Patient's Brain Slice) (Homo sapiens, UniProt P05067). In words: IC50 determination with [18F]-PiB by ex vivo competition assay using autoradiography staining. It counts as binding. From the text: Ex Vivo Competition Assay Using Amyloid (AD Patient's Brain Slice) Autoradiography Staining

Like-named read-outs stand apart in the source and are kept apart here.

Sequence of Amyloid (AD Patient's Brain Slice) (P05067 672-711 limits assumed): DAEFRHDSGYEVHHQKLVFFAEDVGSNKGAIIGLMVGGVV
T2 sequence (P05067 672-713 limits assumed): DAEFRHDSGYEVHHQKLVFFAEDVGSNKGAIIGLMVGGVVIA
Sequence of AchE (P22303 32-614): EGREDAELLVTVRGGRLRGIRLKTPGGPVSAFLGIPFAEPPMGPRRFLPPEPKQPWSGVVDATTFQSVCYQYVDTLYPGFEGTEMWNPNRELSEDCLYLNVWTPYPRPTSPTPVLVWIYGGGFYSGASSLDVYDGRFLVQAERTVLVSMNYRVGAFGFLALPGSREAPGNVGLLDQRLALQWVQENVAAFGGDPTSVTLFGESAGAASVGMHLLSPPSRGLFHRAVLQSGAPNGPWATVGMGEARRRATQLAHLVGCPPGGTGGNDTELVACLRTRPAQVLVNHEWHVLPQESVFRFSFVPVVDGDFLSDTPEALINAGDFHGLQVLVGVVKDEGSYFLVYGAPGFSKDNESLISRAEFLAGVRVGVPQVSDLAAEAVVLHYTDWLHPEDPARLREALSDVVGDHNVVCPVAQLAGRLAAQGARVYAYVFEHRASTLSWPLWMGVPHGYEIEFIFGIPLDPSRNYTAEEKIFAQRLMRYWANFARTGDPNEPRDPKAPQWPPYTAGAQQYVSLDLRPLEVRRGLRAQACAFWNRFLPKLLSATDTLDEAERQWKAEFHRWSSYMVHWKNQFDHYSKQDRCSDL
T5 sequence (P10636 623-758 limits assumed): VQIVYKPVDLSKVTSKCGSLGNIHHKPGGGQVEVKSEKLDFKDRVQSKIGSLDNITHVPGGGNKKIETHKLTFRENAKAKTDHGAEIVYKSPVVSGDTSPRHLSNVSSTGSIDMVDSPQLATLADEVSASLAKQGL
Sequence of oligomers/polymers (Aβ1-42) (P05067 672-713 limits assumed): as the sequence (P05067 672-713 limits assumed) above
Sequence of fibrils (Aβ1-42) (P05067 672-713 limits assumed): as above
T1 sequence (P05067 672-713 limits assumed): as above

Consider `[11CH3]Nc1ccc(-c2cc3ccc(O)cc3o2)cc1`, for which the Ki in series [1] was 2.8 nM.

With `Oc1ccc2c(c1)[nH]c1ccccc12` [2-Hydroxycarbazole], the “Binding to fibrils (Aβ1-42)” value in [2] is “+”. Also, the “Binding to oligomers/polymers (Aβ1-42)” value in [3] is “+++”.

In the case of `O=S(=O)(O)c1cccc2cccc(Nc3ccccc3)c12` [ANS], the IC50 in series [4] was > 100000 nM.

On to `FCCOc1ccc2c(c1)[nH]c1ccccc12` [CB-001, 2-(2-fluoroethoxy)-9H-carbazole], for which, in series [5], the “brain entry and washout” value is “entered the rat brain and quickly washed out”. The non-specific binding propensity result in [6] (compared to FDDNP) is “lower”. Besides, the “Grey/white matter binding ratio using harsh FDDNP wash conditions” value in [6] (harsh FDDNP wash: 70%/90%/70% EtOH:water) is “Excellent”. The “Grey/white matter binding ratio using mild wash conditions” value in series [6] is recorded as “Poor”. Also, the “grey to white matter ratio” value in series [6] (original wash, text b480) is listed as “much better”.

Regarding `FCCOCCOCCOc1ccc2c(c1)[nH]c1ccccc12` [CB-003, 2-(2-(2-(2-fluoroethoxy)ethoxy)ethoxy)-9H-carbazole], the “differentiation of healthy and AD brain” value in series [6] (mild wash protocol) is “clearly differentiate between a healthy brain and an AD brain”. In addition, the “Grey/white matter binding ratio using mild wash conditions” value in series [6] is given as “Excellent”. For the same compound, in series [6] (milder washing conditions, text b481), the “grey to white matter binding ratios” value was “excellent”.

Turning to `Nc1c(/N=N/c2ccc(-c3ccc(/N=N/c4cc(S(=O)(=O)O)c5ccccc5c4N)cc3)cc2)cc(S(=O)(=O)O)c2ccccc12` [Congo Red], the IC50 in series [4] was 2000 to 10000 nM.

Take `COc1cc(/C=C/C(=O)/C=C(O)/C=C/c2ccc(O)c(OC)c2)ccc1O` [Curcumin]: the IC50 in [4] is 10000 to 20000 nM.

`CC(=C(C#N)C#N)c1ccc2cc(N(C)CCF)ccc2c1` [FDDNP]: the “blocking of [18F]-CB001 staining” value in [7] is “much less capable of blocking”.

For the compound `CNc1ccc(-c2nc3ccc(O)cc3s2)cc1` [PiB], the “blocking of [18F]-CB001 staining” value in series [7] was “blocks [18F]-CB001 staining with increasing concentrations”.

With `FCCc1ccc2c(c1)[nH]c1ccncc12` [T805, 7-(2-Fluoroethyl)-5H-pyrido[4,3-b]indole], the inhibition at 1 µM in series [8] and in series [10] was 0% each time. In [9], the “GM Intensity (comp. with W372)” value stood at 8%. Besides, the Brain uptake result in [11] is recorded as “excellent”; in series [14], “yes (2 rats, 2 mice)”. The “AchE activity, effect at 10 uM” value in series [12] (at 10 uM) was <50% at 10 uM. Moreover, the “background (normal brain 32566) PSL/mm2” value in [13] is on record as 49 PSL/mm2. Moreover, the Kd in series [15] is 32 nM. Further, the “selectivity (tau/Ab)” value in [16] was determined as 14x.

In the case of `Fc1ccc(-c2ccc3c(c2)[nH]c2ccncc23)cn1` [T807, 7-(6-Fluoropyridine-3-yl)-5H-pyrido[4,3-b]indole], the inhibition at 1 µM in series [8] and in series [10] was 0% in each case. The “GM Intensity (comp. with W372)” value in series [9] is listed as 28%. The Tx/tau/amyloid correlation result in series [17] is listed as “yes”. Moreover, the “human hepatocytes (metabolic stability)” value in [18] is “somewhat stable”. In addition, the Brain uptake result is reported as “excellent” in series [11] and “yes (3 rats, 3 mice)” in series [14]. Moreover, the IC50 in [12] was found to be 6000 nM. In addition, the “background (normal brain 32566) PSL/mm2” value in [13] worked out at 61 PSL/mm2. The Kd in series [15] came to 15 nM. For the same compound, the “selectivity (tau/Ab)” value in series [16] is reported as 29x.

Turning to F-PiB, the IC50 in series [19] (average of determinations, read-out: Average IC50) worked out at 45 nM; in [19] (determination 9, read-out: IC50 9) it was 40 nM; in series [19] (determination 10, read-out: IC50 10), 50 nM; in series [19] (determination 11, read-out: IC50 11) it was 55 nM; in series [19] (determination 12, read-out: IC50 12) it was 41 nM. Also, the overall signal result in series [6] was “very weak”.

As for Harmol, the “Binding to fibrils (Aβ1-42)” value in series [2] was “+”. Besides, the “Binding to oligomers/polymers (Aβ1-42)” value in series [3] is listed as “++”.

As usually defined, the Ki is the dissociation constant of the complex between target and ligand, obtained from inhibition or displacement. As usually defined, the IC50 is the concentration needed to halve the response being measured. One may read the inhibition as how much of the control response was suppressed. A word on the Kd: it is the constant that tells how readily two partners part at equilibrium.
